Test results reported in ChEMBL document CHEMBL1909046, “DrugMatrix in vitro pharmacology data”.

Assays:
Cathepsin G = biological target: T1, Cathepsin G (Homo sapiens, UniProt P08311); type: tissue-based; details: neutrophil;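 also: inhibition of Cathepsin G enzyme activity, tested on an AMC-conjugated peptide substrate; in other assays of this panel Not Active means under 50% inhibition at 10 µM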
T1 sequence (P08311 whole entry): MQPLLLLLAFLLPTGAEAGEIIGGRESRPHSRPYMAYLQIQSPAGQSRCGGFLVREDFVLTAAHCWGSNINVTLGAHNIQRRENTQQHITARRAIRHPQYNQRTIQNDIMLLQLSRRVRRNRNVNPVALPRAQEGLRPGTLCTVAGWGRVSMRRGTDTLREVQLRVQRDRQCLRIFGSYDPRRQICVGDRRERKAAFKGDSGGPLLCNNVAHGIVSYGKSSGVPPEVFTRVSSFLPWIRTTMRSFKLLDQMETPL

[1] = biological target: T2, Angiotensin-converting enzyme (Oryctolagus cuniculus, UniProt P12822); type: tissue-based, Lung;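 also: enzymatic inhibition of angiotensin-converting enzyme measured with FAPGG as the substrate; in other assays of this panel Not Active means under 50% inhibition at 10 µM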
T2 sequence (P12822 whole entry): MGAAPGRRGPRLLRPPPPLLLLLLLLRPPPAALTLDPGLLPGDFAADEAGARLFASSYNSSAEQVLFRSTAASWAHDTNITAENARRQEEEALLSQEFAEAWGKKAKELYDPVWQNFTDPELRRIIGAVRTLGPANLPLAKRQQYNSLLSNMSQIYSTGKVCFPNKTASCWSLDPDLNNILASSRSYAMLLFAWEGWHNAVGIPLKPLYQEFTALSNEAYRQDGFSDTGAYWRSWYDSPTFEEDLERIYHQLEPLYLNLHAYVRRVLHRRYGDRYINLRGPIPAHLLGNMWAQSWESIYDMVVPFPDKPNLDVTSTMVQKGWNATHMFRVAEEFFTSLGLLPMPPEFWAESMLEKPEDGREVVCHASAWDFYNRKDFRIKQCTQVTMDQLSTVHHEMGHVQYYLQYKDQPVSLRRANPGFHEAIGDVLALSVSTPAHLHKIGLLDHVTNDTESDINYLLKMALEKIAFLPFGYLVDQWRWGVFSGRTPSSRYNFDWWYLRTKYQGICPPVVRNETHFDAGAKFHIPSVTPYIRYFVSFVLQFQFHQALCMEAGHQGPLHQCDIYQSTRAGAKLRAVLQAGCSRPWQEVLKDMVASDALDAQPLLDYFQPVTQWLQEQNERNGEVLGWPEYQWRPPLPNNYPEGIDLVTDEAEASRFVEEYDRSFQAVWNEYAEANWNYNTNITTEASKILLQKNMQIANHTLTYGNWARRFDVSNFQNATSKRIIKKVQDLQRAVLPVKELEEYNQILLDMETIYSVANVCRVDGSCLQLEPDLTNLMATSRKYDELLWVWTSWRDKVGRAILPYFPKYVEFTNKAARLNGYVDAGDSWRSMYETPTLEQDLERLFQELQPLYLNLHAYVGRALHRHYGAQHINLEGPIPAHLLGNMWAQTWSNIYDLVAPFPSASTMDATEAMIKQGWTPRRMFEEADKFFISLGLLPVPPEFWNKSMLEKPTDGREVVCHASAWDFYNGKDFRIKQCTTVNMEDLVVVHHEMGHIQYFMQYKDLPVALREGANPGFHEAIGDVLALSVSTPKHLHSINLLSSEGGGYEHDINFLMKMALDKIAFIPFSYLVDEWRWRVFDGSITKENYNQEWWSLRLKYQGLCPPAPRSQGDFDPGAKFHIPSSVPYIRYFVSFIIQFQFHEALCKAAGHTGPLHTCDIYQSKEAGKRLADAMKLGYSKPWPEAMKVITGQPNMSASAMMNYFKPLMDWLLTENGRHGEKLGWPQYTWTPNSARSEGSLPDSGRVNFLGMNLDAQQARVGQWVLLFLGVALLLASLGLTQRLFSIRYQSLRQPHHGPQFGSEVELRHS

[2] = DRUGMATRIX: Tumor Necrosis Factor (TNF), Non-Selective radioligand binding (ligand: [125I] TNF-alpha); type: cell membranes, Membrane; details: u-937; Not Active = under 50% inhibition at 10 µM
[3] = biological target: T3, Polyunsaturated fatty acid lipoxygenase ALOX15 (Oryctolagus cuniculus, UniProt P12530); experiment: biochemical; type: tissue-based, Reticulocytes; details: reticulocytes;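 also: inhibition of 15-lipoxygenase enzyme activity measured with linoleic acid as the substrate; in other assays of this panel Not Active means under 50% inhibition at 10 µM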
T3 sequence (P12530 whole entry): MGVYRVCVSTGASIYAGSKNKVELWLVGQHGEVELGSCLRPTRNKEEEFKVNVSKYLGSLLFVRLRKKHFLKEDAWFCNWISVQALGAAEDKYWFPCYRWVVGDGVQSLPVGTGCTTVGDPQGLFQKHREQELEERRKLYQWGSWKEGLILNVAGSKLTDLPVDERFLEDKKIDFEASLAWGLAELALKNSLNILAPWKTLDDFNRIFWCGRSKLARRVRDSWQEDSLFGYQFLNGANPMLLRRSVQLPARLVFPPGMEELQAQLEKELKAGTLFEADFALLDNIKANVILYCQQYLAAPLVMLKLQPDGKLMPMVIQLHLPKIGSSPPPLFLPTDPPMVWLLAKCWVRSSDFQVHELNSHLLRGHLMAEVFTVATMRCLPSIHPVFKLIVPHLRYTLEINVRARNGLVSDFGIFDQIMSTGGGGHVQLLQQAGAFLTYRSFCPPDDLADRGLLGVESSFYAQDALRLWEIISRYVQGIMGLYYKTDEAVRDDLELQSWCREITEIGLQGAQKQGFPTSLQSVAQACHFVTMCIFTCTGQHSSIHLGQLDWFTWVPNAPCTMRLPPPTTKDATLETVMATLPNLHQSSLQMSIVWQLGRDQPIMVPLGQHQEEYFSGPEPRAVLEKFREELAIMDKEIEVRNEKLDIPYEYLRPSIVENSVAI

[4] = DRUGMATRIX: Phorbol Ester radioligand binding (ligand: [3H] PDBu); type: cell membranes, Mus musculus, ICR, Brain, Membrane; details: Not Active = under 50% inhibition at 10 µM
Substance-K receptor = biological target: T4, Substance-K receptor (Homo sapiens, UniProt P21452); type: cell membranes, CHO, Membrane; details: cho; also: in other assays of this panel Not Active means under 50% inhibition at 10 µM
T4 sequence (P21452 whole entry): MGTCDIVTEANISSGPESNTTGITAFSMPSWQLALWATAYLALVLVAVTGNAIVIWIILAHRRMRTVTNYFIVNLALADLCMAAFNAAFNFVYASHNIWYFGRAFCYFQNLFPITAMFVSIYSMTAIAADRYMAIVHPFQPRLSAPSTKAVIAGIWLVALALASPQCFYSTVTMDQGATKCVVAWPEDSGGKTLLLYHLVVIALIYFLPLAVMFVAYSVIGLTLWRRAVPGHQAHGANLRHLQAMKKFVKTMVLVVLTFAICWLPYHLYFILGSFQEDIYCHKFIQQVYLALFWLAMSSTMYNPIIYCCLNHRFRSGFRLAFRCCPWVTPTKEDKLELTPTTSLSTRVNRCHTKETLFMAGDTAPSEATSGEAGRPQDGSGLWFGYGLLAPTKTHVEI

MANGANESE CHLORIDE ANHYDROUS
Not Active: IC50 (Cathepsin G) | Ki (Cathepsin G) | IC50 [1] | Ki [1] | IC50 [2] | Ki [2] | IC50 [3] | Ki [3] | IC50 [4] | Ki [4] | IC50 (Substance-K receptor) | Ki (Substance-K receptor)

SODIUM ORTHOVANAD
Not Active: IC50 (Cathepsin G) | Ki (Cathepsin G) | IC50 [1] | Ki [1] | IC50 [2] | Ki [2] | IC50 [3] | Ki [3] | IC50 [4] | Ki [4] | IC50 (Substance-K receptor) | Ki (Substance-K receptor)
